Assay results published in patent US7220756B2, “N-sulfonylheterocyclopyrrolyl-alkylamine compounds as 5-hydroxytryptamine-6 ligands” (Wyeth, priority 2003, dated 2007).

Each compound was assayed against T1, human cloned 5-HT6 receptors (Homo sapiens, UniProt P50406) (assay: 5-HT6 binding affinity, [3H]-LSD displacement). Conditions: membranes of Hela cells expressing human cloned 5-HT6 receptors; [3H]-LSD 3.0 nM; 120 min, room temperature; read-out: 5-HT6 Binding Ki.
T1 construct: expressed in transfected cells; host or cells: HeLa cells
T1 sequence (P50406 whole entry): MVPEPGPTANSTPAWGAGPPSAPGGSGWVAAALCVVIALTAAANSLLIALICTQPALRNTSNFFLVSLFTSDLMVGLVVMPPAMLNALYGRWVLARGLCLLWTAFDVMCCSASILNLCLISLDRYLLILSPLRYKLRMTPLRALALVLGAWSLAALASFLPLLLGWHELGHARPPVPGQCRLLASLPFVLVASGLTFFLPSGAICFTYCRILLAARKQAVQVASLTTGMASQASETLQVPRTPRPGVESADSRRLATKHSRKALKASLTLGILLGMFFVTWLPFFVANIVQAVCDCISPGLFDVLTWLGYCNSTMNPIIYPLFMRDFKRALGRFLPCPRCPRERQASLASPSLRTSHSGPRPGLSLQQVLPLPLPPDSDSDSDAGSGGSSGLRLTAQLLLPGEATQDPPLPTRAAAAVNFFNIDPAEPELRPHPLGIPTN
Protocol: The affinity of test compounds for the serotonin 5-HT6 receptor is evaluated in the following manner. Cultured Hela cells expressing human cloned 5-HT6 receptors are harvested and centrifuged at low speed (1,000×g) for 10.0 min to remove the culture media. The harvested cells are suspended in half volume of fresh physiological phosphate buffered saline solution and recentrifuged at the same speed. This operation is repeated. The collected cells are then homogenized in ten volumes of 50 mM Tris.HCl (pH 7.4) and 0.5 mM EDTA. The homogenate is centrifuged at 40,000×g for 30.0 min and the precipitate is collected. The obtained pellet is resuspended in 10 volumes of Tris.HCl buffer and recentrifuged at the same speed. The final pellet is suspended in a small volume of Tris.HCl buffer and the tissue protein content is determined in aliquots of 10–25 μl volumes. Bovine Serum Albumin is used as the standard in the protein determination according to the method described in Lowry et al., J. Biol. Chem., 193:265 (1951). The volume of the suspended cell membranes is adjusted to give a tissue protein concentration of 1.0 mg/ml of suspension. The prepared membrane suspension (10 times concentrated) is aliquoted in 1.0 ml volumes and stored at −70° C. until used in subsequent binding experiments.
The reaction is allowed to proceed in the dark for 120 min at room temperature, at which time, the bound ligand-receptor complex is filtered off on a 96 well unifilter with a Packard Filtermate® 196 Harvester. The bound complex caught on the filter disk is allowed to air dry and the radioactivity is measured in a Packard TopCount® equipped with six photomultiplier detectors, after the addition of 40.0 μl Microscint®−20 scintillant to each shallow well. The unifilter plate is heat-sealed and counted in a PackardTopCount® with a tritium efficiency of 31.0%.
Binding in the presence of varying concentrations of test compound is expressed as a percentage of specific binding in the absence of test compound. The results are plotted as log % bound versus log concentration of test compound. […] A linear regression line of data points is plotted, from which the IC50 value is determined and the Ki value is determined based upon the following equation: Ki=IC50/(1+L/KD) where L is the concentration of the radioactive ligand used and KD is the dissociation constant of the ligand for the receptor, both expressed in nM.

Row | Ki [nM] | Compound
1 | 0.2 | CN(C)CCc1cn(S(=O)(=O)c2c(Cl)nc3sccn23)c2ccsc12 [Example 74]
2 | 9.2 ± 1 | NCCc1cn(S(=O)(=O)c2ccc3ccccc3c2)c2ccsc12 [Example 66]
3 | 0.9 | CN(C)CCc1cn(S(=O)(=O)c2cccc(F)c2)c2ccsc12 [Example 79]
4 | 24.3 ± 1.5 | Cc1c(S(=O)(=O)n2cc(CCN(C)C)c3sccc32)sc2ccc(Cl)cc12 [Example 77]
5 | 2.3 ± 0.5 | CN(C)CCc1cn(S(=O)(=O)c2cccc(C(F)(F)F)c2)c2sccc12 [Example 39, N,N-dimethyl-2-{{[6-(3-trifluoromethyl)phenyl]sulfonyl}-6H-thieno[2,3-b]pyrrol-4-yl}-ethylamine]
6 | 50 ± 1 | Cc1nc(S(=O)(=O)n2cc(CCN(C)C)c3ccsc32)cn1C [Example 60, N,N-dimethyl-2-{[6-(1,2-dimethyl-1H-imidazol-4-yl)sulfonyl]-6H-thieno[2,3-b]pyrrol-4-yl}ethylamine]
7 | 1.6 | Cc1cccc(S(=O)(=O)n2cc(CCN(C)C)c3ccsc32)c1 [Example 59, N,N-dimethyl-2-{[6-(3-methylphenyl)sulfonyl]-6H-thieno[2,3-b]pyrrol-4-yl}ethylamine]
8 | 2.4 ± 0.3 | NCCc1cn(S(=O)(=O)c2ccc(N)cc2)c2sccc12 [Example 35, 2-{[6-(4-aminophenyl)sulfonyl]-6H-thieno[2,3-b]pyrrol-4-yl}ethylamine]
9 | 25 ± 1 | Cc1c(S(=O)(=O)n2cc(CCN)c3sccc32)sc2ccc(Cl)cc12 [Example 68]
10 | 2.4 ± 0.2 | CN(C)CCc1cn(S(=O)(=O)c2cccs2)c2sccc12 [Example 56, N,N-dimethyl-2-{(6-thien-2-ylsulfonyl)-6H-thieno[2,3-b]pyrrol-4-yl]-ethyllamine]
11 | 1.2 ± 0.1 | CN(C)CCc1cn(S(=O)(=O)c2ccccc2)c2sccc12 [Example 38, N,N-Dimethyl-2-[6-(phenylsulfonyl)-6H-thieno[2,3-b]pyrrol-4-yl]ethylamine]
12 | 20.3 ± 3.4 | Cc1c(S(=O)(=O)n2cc(CCN(C)C)c3ccsc32)sc2ccc(Cl)cc12 [Example 45, N,N-dimethyl-2-{[6-(5-chloro-3-methylbenzo[b]thien-2-yl)sulfonyl]-6H-thieno[2,3-b]pyrrol-4-yl}ethylamine]
13 | 4.7 ± 0.1 | CN(C)CCc1cn(S(=O)(=O)c2ccccc2C(F)(F)F)c2sccc12 [Example 62, N,N-dimethyl-2-{{[6-(2-trifluoromethyl)phenyl]sulfonyl}-6H-thieno[2,3-b]pyrrol-4-yl}ethylamine]
14 | 2.1 ± 0.2 | CN(C)CCc1cn(S(=O)(=O)c2cccc(F)c2)c2sccc12 [Example 47, N,N-dimethyl-2-{[6-(3-fluorophenyl)sulfonyl]-6H-thieno[2,3-b]pyrrol-4-yl]-ethylamine]
15 | 2 ± 0.1 | COc1cccc(S(=O)(=O)n2cc(CCN)c3sccc32)c1 [Example 67, 2-{[4-(3-methoxyphenyl)sulfonyl]-4H-thieno[3,2-b]pyrrol-6-yl}ethylamine]
16 | 2.1 ± 0.1 | CN(C)CCc1cn(S(=O)(=O)c2ccccc2F)c2ccsc12 [Example 78]
17 | 0.8 ± 0.1 | COc1cccc(S(=O)(=O)n2cc(CCN(C)C)c3ccsc32)c1 [Example 44]
18 | 1.2 ± 0.1 | CN(C)CCc1cn(S(=O)(=O)c2ccccc2)c2ccsc12 [Example 70]

Continued, compound first:

Row | Compound | Ki [nM]
19 | NCCc1cn(S(=O)(=O)c2ccccc2C(F)(F)F)c2sccc12 [Example 32, 2-{{[6-(2-trifluoromethyl)phenyl]sulfonyl}-6H-thieno[2,3-b]pyrrol-4-yl}ethylamine] | 21 ± 2.7
20 | N,N-dimethyl-2-[6-(2-naphthylsufonyl)-6H-thieno[2,3-b]pyrrol-4-yl]ethylamine [Example 43] | 2.5 ± 0.2
21 | N,N-dimethyl-2-{[6-(4,5-dichlorothien-2-yl)sulfonyl]-6H-thieno[2,3-b]pyrrol-4-yl]-ethyl]-amine [Example 57] | 4.9 ± 0.3
22 | NCCc1cn(S(=O)(=O)c2cccs2)c2sccc12 [Example 26] | 20 ± 2
23 | N,N-dimethyl-2-{[6-(6-chloroimidazo[2,1-b][1,3]thiazol-5-yl)sulfonyl]-6H-thieno[2,3-b]pyrrol-4-yl}ethylamine [Example 42] | 0.9 ± 0.1
24 | NCCc1cn(S(=O)(=O)c2cc(Cl)c(Cl)s2)c2sccc12 [Example 27, 2-{[6-(4,5-dichlorothien-2-yl)sulfonyl]-6H-thieno[2,3-b]pyrrol-4-yl}ethylamine] | 32.7 ± 4.1
25 | N,N-dimethyl-2-{[6-(2,3-dichlorophenyl)sulfonyl]-6H-thieno[2,3-b]pyrrol-4-yl}ethyl-amine [Example 53] | 3 ± 0.1
26 | COc1cccc(S(=O)(=O)n2cc(CCN)c3ccsc32)c1 [Example 14, 2-{[6-(3-methoxyphenyl)sulfonyl]-6H-thieno[2,3-b]pyrrol-4-yl}ethylamine] | 2.3 ± 0.1
27 | 2-{[6-(6-Chloroimidazo[2,1-b][1,3]thiazol-5-yl)sulfonyl]-6H-thieno[2,3-b]pyrrol-4-yl}-ethylamine [Example 12] | 2.1 ± 0.1
28 | NCCc1cn(S(=O)(=O)c2cccc3cccnc23)c2sccc12 [Example 31, 2-{[6-(quinolin-8-yl)sulfonyl]-6H-thieno[2,3-b]pyrrol-4-yl}-ethylamine] | 8.6 ± 0.8
29 | N,N-dimethyl-2-{[6-(3-bromophenyl)sulfonyl]-6H-thieno[2,3-b]pyrrol-4-yl}-ethylamine [Example 54] | 1.7 ± 0.1
30 | N,N-dimethyl-2-{[6-(2,6-dichloroimidazo[2,1-b]thiazol-5-yl)sulfonyl]-6H-thieno[2,3-b]pyrrol-4-yl}ethylamine [Example 51] | 6.8 ± 0.6
31 | N,N-dimethyl-2-{[6-(3-chlorophenyl)sulfonyl]-6H-thieno[2,3-b]pyrrol-4-yl}ethylamine [Example 40] | 1.6 ± 0.3
32 | 2-{[6-(3-Chlorophenyl)sulfonyl]-6H-thieno[2,3-b]pyrrol-4-yl}ethylamine [Example 10] | 4.3 ± 0.5
33 | 2-{[6-(2,6-dichloroimidazo[2,1-b][1,3]thiazol-5-yl)sulfonyl]-6H-thieno[2,3-b]pyrrol-4-yl}-ethylamine [Example 21] | 21.3 ± 1.5
34 | N,N-dimethyl-2-{[6-(2-chloroimidazo[1,2-a]pyridin-3-yl)sulfonyl]-6H-thieno[2,3-b]pyrrol-4-yl}ethylamine [Example 50] | 2.1 ± 0.1
35 | CN(C)CCc1cn(S(=O)(=O)c2cccc3ccccc23)c2sccc12 [Example 58, N,N-dimethyl-2-{[6-(1-naphthyl)sulfonyl]-6H-thieno[2,3-b]pyrrol-4-yl}ethylamine] | 3.6 ± 0.1
36 | N,N-dimethyl-2-{[6-(imidazo[2,1-b][1,3]thiazol-5-yl)sulfonyl]-6H-thieno[2,3-b]pyrrol-4-yl}-ethylamine [Example 49] | 1.1 ± 0.1
37 | N,N-dimethyl-2-{[6-(3-chloro-2-methylphenyl)sulfonyl]-6H-thieno[2,3-b]pyrrol-4-yl}-ethylamine [Example 64] | 5.9 ± 1.4
38 | Cc1c(S(=O)(=O)n2cc(CCN)c3ccsc32)sc2ccc(Cl)cc12 [Example 15, 2-{[6-(5-chloro-3-methylbenzo[b]thien-2-yl)sulfonyl]-6H-thieno[2,3-b]pyrrol-4-yl}-ethylamine] | 102 ± 5.7
39 | NCCc1cn(S(=O)(=O)c2cccc(C(F)(F)F)c2)c2sccc12 [Example 9, 2-{[6-(3-trifluoromethyl)phenylsulfonyl]-6H-thieno[2,3-b]pyrrol-4-yl}ethylamine] | 8.9 ± 0.7
40 | 2-{[6-(3-chloro-2-methylphenyl)sulfonyl]-6H-thieno[2,3-b]pyrrol-4-yl}ethylamine [Example 34] | 13.3 ± 1.5
41 | NCCc1cn(S(=O)(=O)c2ccccc2F)c2sccc12 [Example 16, 2-{[6-(2-fluorophenyl)sulfonyl]-6H-thieno[2,3-b]pyrrol-4-yl}ethylamine] | 12 ± 1.2
42 | 2-{[6-(5-Chlorothien-2-yl)sulfonyl]-6H-thieno[2,3-b]pyrrol-4-yl}ethylamine [Example 11] | 4.9 ± 0.8
43 | 2-{[4-(3-chlorophenyl)sulfonyl]-4H-thieno[3,2-b]pyrrol-6-yl}ethylamine [Example 65] | 2.7 ± 0.1
44 | N,N-dimethyl-2-{[6-(5-chlorothien-2-yl)sulfonyl]-6H-thieno[2,3-b]pyrrol-4-yl]-ethyl}-amine [Example 41] | 1.3 ± 0.1
45 | NCCc1cn(S(=O)(=O)c2cccc(Cl)c2Cl)c2sccc12 [Example 23, 2-{[6-(2,3-dichlorophenyl)sulfonyl)-6H-thieno[2,3-b]pyrrol-4-yl}ethylamine] | 7.1 ± 0.2
46 | Cc1nc(S(=O)(=O)n2cc(CCN)c3ccsc32)cn1C [Example 30, 2-{[6-(1,2-dimethyl-1H-imidazol-4-yl)sulfonyl]-6H-thieno[2,3-b]pyrrol-4-yl}ethylamine] | 134 ± 10.3
